Laboratory results: US8974834B2, “Method for producing reservoir layer for hoof treatment and reservoir layer” (Ecolab USA Inc., priority 2010, dated 2015)

Legend:
[1] = Formation of a precipitate on mixing a surfactant with aqueous polyaluminium chloride/glutaraldehyde solution; format: physicochemical; conditions: mixed with aqueous solution (a) containing polyaluminium chloride and 7% glutaraldehyde
Method: (§1) 50 ml of an aqueous solution (a) containing approximately 31.5 weight % polyaluminium chloride (dialuminum chloride pentahydroxide), 7% glutaraldehyde was mixed with 10 g Texapon®NSO (C12-C14 alkyl ether sulfate with 2 mole EO). Before mixing the aluminium content of the aqueous solution (a) was about 9.5 weight %. […] The white precipitate was analyzed with respect to its contents of glutaraldehyde, Texapon®NSO. The content of polyaluminium chloride was analyzed by the content of Al-ions by XRF.
50 ml of an aqueous solution (a) containing 10% polyaluminium chloride and 7% glutaraldehyde was mixed with 50 ml of an aqueous solution (b) containing 10 weight % dodecylbenzenesulphonic acid. Before mixing the aluminium content of the aqueous solution (a) was about 3 weight %.
50 ml of an aqueous solution (a) containing 10% polyaluminium chloride, 7% glutaraldehyde was mixed with 50 ml of an aqueous solution (b) containing 10 weight % N-alkyl(C12-C16)-N-benzyl-N,N-dimethylammonium chloride (Barquat®DM-50).

[2] = Chemical analysis of the precipitate (contents of glutaraldehyde and Texapon NSO; Al by XRF); format: physicochemical; conditions: white precipitate from 50 ml solution (a) (31.5 weight % polyaluminium chloride, 7% glutaraldehyde) mixed with 10 g Texapon NSO
Method: as §1

SMILES	formation of a precipitate upon mixing [1]	quantified values (content in the precipitate) [2]
CCCCCCCCCCCCc1ccc(S(=O)(=O)O)cc1 [dodecylbenzenesulphonic acid]	white solid immediately was formed	
O=CCCCC=O [glutaraldehyde]		3.7%
